In patent US7879792B2, “Synthetic peptide inhibitors of thrombin and thrombin activation of protease activated receptors 1 and 4” (The Regents of the University of Michigan, priority 2005, dated 2011):
Entries after “also recorded” stand apart in the source; their conditions may differ. Where a SMILES comes first, the peptide text is derived from it.

What was measured:
[1] = rat intestinal in situ perfusion permeability; format: in vivo
Description: To determine the intestinal permeability of the various peptide analogs, male albino Sprague-Dawley rats, 9-10 weeks old and weighing 250-350 g were fasted for 18 hours with free access to water. The rats were anesthetized with an intramuscular injection of ketamine/xylazine/butorphanol (87 mg/kg, 6 mg/kg, and 0.2 mg/kg body weight, respectively). The abdomen was opened by a 4-5 cm midline incision and a 10 cm jejunal segment was cannulated on two ends and connected to a syringe pump that pumps the perfusing solution through the cannulated intestine at a constant rate and at a temperature of 37° C. The isolated segment was rinsed with 10 mM MES (pH 6.5) at a flow-rate of 0.5 ml/min in order to clean out any residual debris. Jejunal perfusion was subsequently performed with the same buffer containing 135 mM NaCl, 5 mM KCl and 0.01% PEG 4000 at a flow rate of 0.2 ml/min containing test compound, internal permeability reference standards (e.g., metoprolol) and ^14C-PEG 4000 as a non-absorbable marker for measuring water flux. After steady-state is reached within the perfused intestinal segment, typically 30 minutes after start of perfusion, samples were taken at 10 minute intervals for 1 hour. ^14C (PEG-4000) levels are assayed by scintillation counting and test compounds and internal permeability standard analysis by LC/MS/MS. Samples are frozen and stored at −80° C. until analysis.
The effective permeability (Peff) determined from the in situ perfusion is calculated from equation 1
[formula] where Q is the perfusion buffer flow rate, C′out is the outlet concentration of the compound that has been adjusted for water transport (equation 2) after passing through the intestinal segment, C′in is the inlet or starting concentration of the compound, R is the radius of the intestinal segment (set to 0.2 cm) and L is the length of the intestinal segment. To correct for water transport, a non-absorbed radioactive tracer, ^14C PEG-4000, is included in the perfusion buffer. The Cout/Cin ratio is corrected for water transport according to equation 2:
[formula] where Aout-A0 is equal to the radioactivity counts in the outlet sample minus background (dpm) and Ain-A0 is equal to the radioactivity counts in the inlet sample minus background (dpm).
In certain instances, in addition to perfusing the intestinal segment as described, plasma is drawn through a portal vein cannula to determine the amount of material entering the portal system during the perfusion. This additional experimental step can aid in determining the true intestinal permeability of unstable compounds. After steady state conditions are reached as described above, 0.5 ml aliquots of plasma are withdrawn from the portal vein at regular intervals throughout the experimental time frame. The plasma samples are deproteinated with acetonitrile and the sample is subjected to SPE and LC/MS analysis as described above. From the plasma concentration of compound, the mesenteric permeability can be determined by substitution into equation 3: Flux=A*Pe-mes*Ci 3) where Flux is equal to the portal blood flow (estimated at 1 ml/min in the rat)×the steady state mesenteric blood concentration of the peptide analogs, A is the absorptive area of the intestine (estimated at 12.56 cm^2 in the rat intestine), Pe-mes is the mesenteric Permeability (cm/sec), and Ci is the starting concentration of drug in the perfusate (ug/ml).

γ-thrombin = assay: inhibition of γ-thrombin hydrolysis of chromogenic substrate; format: biochemical, human; details: read-out: Ki (μM) + SD, γIIa (2 nM); gamma-thrombin 2 nM, Sar-Pro-Arg-paranitroanilide
[2] = system: normal human citrated plasma; assay: prothrombin time (PT); format: biochemical
Description: The influence of the various peptide formulations used in the present invention on established coagulation-based assays was determined. The activated partial thromboplastin time (APTT) is performed by mixing 0.05 ml normal human citrated plasma with 0.05 ml activated partial thromboplastin reagent purchased from Organon Teknika, Research Triangle Park, NC in the absence or presence of a peptide inhibitor. After incubation for 5 min at 37° C., the mixture is recalcified with 0.05 ml of 30 mM calcium chloride and the time to clot formation is measured in an Amelung KC4A instrument (Sigma Chemical Corp, St. Louis, Mo.) (Hasan et al. Thrombosis and Haemostasis. 82, 1182-1187 (1999)). The prothrombin time (PT) is performed by mixing 0.05 ml normal human citrated plasma with 0.05 ml Simplastin (Organon Teknika, Research Triangle Park, NC) followed by incubation for 3 min at 37° C. in the absence or presence of a peptide inhibitor. At the addition of 0.05 ml of 30 mM calcium chloride, the time to clot formation is measured in an KC4A instrument (Sigma Chemical Corp, St. Louis, Mo.) (Hasan et al. Thrombosis and Haemostasis. 82, 1182-1187 (1999)). The thrombin clotting time (TCT) is performed by adding 0.1 ml normal human citrated plasma in the absence or presence of a peptide inhibitor and 0.05 ml of a α-thrombin solution such that the final concentration of the thrombin in the entire mixture was 1 nM. Upon addition of the thrombin, the time to clot formation is measured in an KC4A instrument (Sigma Chemical Corp, St. Louis, Mo.).

C57BL6 mice = assay: Rose Bengal model for arterial thrombosis, time to carotid artery occlusion; format: in vivo, mouse; details: 0.2 to 3.22 mg/kg IP
Description: C57BL6 mice 6 to 16 weeks of age were anesthetized by intraperitoneal injection with sodium pentobarbital and placed in the supine position on a dissecting microscope (Nikon SMZ-2T, Mager Scientific, Inc., Dexter, Mich.). A midline surgical incision was made to expose the right common carotid artery and a Doppler flow probe (Model 0.5 VB, Transonic Systems, Ithaca, N.Y.) is placed under the vessel. The probe was connected to a flowmeter (Transonic Model T106) and was interpreted with a computerized data acquisition program (Windaq, DATAQ Instruments, Arkron, Ohio). Rose Bengal (4,5,6,7-tetrachloro-3′,6-dihydroxy-2,4,5,7-tetraiodospiro(isobenzofuran-1(3H), 9 [9H] xanthan)-3-1 dipotassium salt) (Fisher Scientific, Fair Lawn, N.J.) at 50 mg/kg in 0.9% saline) was then injected into the tail vein in a 0.12 ml volume (Eitzman et al., Blood 95, 577 (2000)). After injection into the tail vein, a green laser light (Melles Griot, Carlsbad, Calif.) at a wavelength of 540 nm was applied 6 cm from the carotid artery. Flow is monitored continuously from the onset of injury. The time to occlusion was determined only after the vessel remained closed with a cessation of blood flow for 20 min. […] These investigations indicate that these compounds are able to prevent thrombosis in the whole animal in vivo.

Row | Permeability (in situ) (cm/sec) ([1]; rat jejunal in situ perfusion) | Papp ([1]; rat, from portal vein plasma during perfusion, read-out: Permeability (mesenteric)) | Compound | Ki (γ-thrombin) | peptide concentration with significant prolongation (p<0.05) of the PT [2] | time to occlusion of the mouse right carotid artery (C57BL6 mice)
1 | Degraded | 0.451 ×10⁻⁶ cm/s | N=C(N)NCCC[C@@H](N)C(=O)N1[C@H](C(=O)N2CCC[C@H]2C(=O)NCC(=O)N[C@@H](Cc2ccccc2)C(N)=O)C[C@@H]2CCCC[C@@H]21 [rOicPGF, D-Arg-Oic-Pro-Gly-Phe, reference compound] (HELM PEPTIDE1{[dR].[O=C([C@@H]1C[C@@H]2CCCC[C@@H]2N1[*:1])[*:2]].P.G.F.[am]}$$$$V2.0) |  |  | 
2 |  |  | Cc1ccc(C[C@H](NC(=O)[C@@H](C)NC(=O)[C@@H]2CCCN2C(=O)[C@@H]2C[C@@H]3CCCC[C@@H]3N2C(=O)[C@H](N)CCCNC(=N)N)C(N)=O)cc1 [rOicPaF(p-Me), D-Arg-Oic-Pro-D-Ala-Phe(p-Me)] (HELM PEPTIDE1{[dR].[O=C([C@@H]1C[C@@H]2CCCC[C@@H]2N1[*:1])[*:2]].P.[dA].[Cc1ccc(C[C@H](N[*:1])C(=O)[*:2])cc1].[am]}$$$$V2.0) | 54.3 ± 16 µM | 1.56 µM | significant prolongation; also recorded: progressively prolonged
